The target in data set [1] is Human CB1R (Cannabinoid receptor 1) (Homo sapiens (Human), UniProt P21554). Kind of data set: CB-1 in vitro cAMP assay (HTRF), inverse agonism. Format: cell-based. The note with it: mean where tested more than once.
Data set [2] has as its target Human CB2R (Cannabinoid receptor 2) (Homo sapiens (Human), UniProt P34972). The experiment in a line: CB-2 in vitro cAMP assay (HTRF), inverse agonism. It counts as cell-based. The following applies: mean where tested more than once.
The nature of data set [3]: Mouse Fast PK/BBB (plasma and brain concentration). Format: in vivo. The note with it: male, C57bl/6j, oral, N=3 (dose given as 30 mg/kg and 20 mg/kg). The text has this: Male Sprague Dawley rats were ordered from Charles River (225-250 gm upon arrival). They were fed standard chow diet (Purina 5001) and housed 2 per cage. Male C57bl/6j mice were ordered from Charles River at 22-25 g and housed 3 per cage. They were fed standard chow (Purina 5001). All animals were housed in a temperature-controlled room with 12-hour light/dark cycle. Animals were given food and water ad libitum, except as noted.
Test compounds were formulated in 10% PEG400 and 10% solutol. Test compounds were administered by oral gavage (5 ml kg^−1).
Male C57bl/6j mice were dosed with test compounds at 30 mg/kg. Plasma was collected via retro-orbital bleeding at 1 hr and 4 hrs after dosing. Whole brain without cerebellum was collected at 4 hrs after dosing. Wet brain weight was recorded before freezing. Brains were homogenized in saline and sent for analysis for determination of concentration of test compound.
Table BIO-3 below present results for representative compounds of the present invention, tested according to the procedure as described above. Each compound was tested in three animals (N=3) and administered PA at 20 mg/kg

Data set [4] in a line: Mouse Fast PK/BBB (plasma and brain concentration). It counts as in vivo. The note with it: oral, N=3 (dose given as 30 mg/kg and 20 mg/kg).
The mark [5] stands for this setting: brain, read-out: BRAIN Mean Conc. ± Std. Dev.
The mark [6] stands for this setting: plasma, read-out: PLASMA Mean Conc. ± Std. Dev.

These results are taken from patent US9266835B2, “Quinoline derivatives useful as CB-1 inverse agonists” (JANSSEN PHARMACEUTICA NV, priority 2014, dated 2016).

Read-outs that look alike come from different tables or passages of the source.

Chain of Human CB2R (Cannabinoid receptor 2) (P34972 whole entry): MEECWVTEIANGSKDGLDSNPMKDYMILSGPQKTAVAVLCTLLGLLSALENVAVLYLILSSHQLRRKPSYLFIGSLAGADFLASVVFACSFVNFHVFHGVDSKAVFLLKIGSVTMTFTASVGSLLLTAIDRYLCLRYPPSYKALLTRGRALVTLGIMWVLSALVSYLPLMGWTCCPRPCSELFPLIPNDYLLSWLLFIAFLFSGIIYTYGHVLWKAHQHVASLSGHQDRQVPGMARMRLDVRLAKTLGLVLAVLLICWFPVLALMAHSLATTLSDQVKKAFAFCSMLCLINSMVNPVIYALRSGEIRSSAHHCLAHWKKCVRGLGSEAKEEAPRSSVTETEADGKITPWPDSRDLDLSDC
Chain of Human CB1R (Cannabinoid receptor 1) (P21554 whole entry): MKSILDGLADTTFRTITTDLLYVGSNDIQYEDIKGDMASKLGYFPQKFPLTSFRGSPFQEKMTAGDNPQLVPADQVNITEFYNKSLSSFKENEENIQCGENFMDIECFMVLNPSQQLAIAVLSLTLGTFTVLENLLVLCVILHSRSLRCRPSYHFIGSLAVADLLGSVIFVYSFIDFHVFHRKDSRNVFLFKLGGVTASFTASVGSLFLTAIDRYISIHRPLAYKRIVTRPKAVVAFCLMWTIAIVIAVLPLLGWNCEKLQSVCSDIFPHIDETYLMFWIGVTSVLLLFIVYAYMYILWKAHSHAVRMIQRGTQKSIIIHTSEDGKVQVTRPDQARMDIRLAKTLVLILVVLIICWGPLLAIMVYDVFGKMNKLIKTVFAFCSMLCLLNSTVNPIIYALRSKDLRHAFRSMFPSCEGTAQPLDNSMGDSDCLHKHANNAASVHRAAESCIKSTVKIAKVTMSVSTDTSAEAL

Regarding `O=c1cc(Nc2ccc(C(F)(F)F)cc2)c2cc(C(c3ccc(Cl)cc3)c3ccc(Cl)cc3)ccc2[nH]1` [Compound #59, 6-(bis(4-chlorophenyl)methyl)-4-((4-(trifluoromethyl)phenyl)amino)quinolin-2(1H)-one], the values for the EC50 in data set [1] and in data set [2] were 7 nM and over 10000 nM, respectively. Moreover, the concentration at 4 h was determined as 59.7 ± 9.55 ng/mL in data set [3] (setting [5]) and 1610 ± 563 ng/mL in data set [3] (setting [6]). For the same compound, the concentration at 1 h in data set [3] (setting [6]) was found to be 2320 ± 1020 ng/mL. The “BRAIN Mean Conc. ± Std. Dev” value in data set [4] (1 hr) is given as “BLOQ ± NA”.

As to `O=c1cc(NC2CCN(S(=O)(=O)C(F)(F)F)CC2)c2cc(C(c3ccc(Cl)cc3)c3nccs3)ccc2[nH]1` (centres unmarked) [Compound #41, 6-((4-chlorophenyl)(thiazol-2-yl)methyl)-4-((1-((trifluoromethyl)sulfonyl)piperidin-4-yl)amino)quinolin-2(1H)-one], the EC50 in data set [1] stood at 15 nM; in data set [2], 8150 nM. Besides, the results for the concentration at 4 h in data set [3] (setting [5]) and in data set [3] (setting [6]) were 0 ng/mL and 291 ± 90.5 ng/mL, respectively. In addition, the concentration at 1 h stood at 714 ± 188 ng/mL in data set [3] (setting [6]) and 7.43 ng/mL in data set [4] (male, C57bl/6j, brain, read-out: BRAIN Mean Conc. ± Std. Dev).

In the case of `CCOC(=O)COc1cc(C(c2ccc(Cl)cc2)c2ccc(Cl)cc2)cc2c(NC3CCN(S(=O)(=O)C(F)(F)F)CC3)cc(=O)[nH]c12` [Compound 544], the EC50 was found to be 126 nM in data set [1] and 3400 nM in data set [2].

For `O=c1cc(NCc2ccc(C(F)(F)F)cc2)c2cc(C(c3ccc(Cl)cc3)c3ccc(Cl)cc3)ccc2[nH]1` [Compound 58, 6-[Bis(4-chlorophenyl)methyl]-4-{[4-(trifluoromethyl)benzyl]amino}-quinolin-2(1H)-one], the values for the concentration for a half-maximal effect (EC50) in data set [1] and in data set [2] were 45 nM and over 10000 nM, respectively.

With `COC(=O)c1ccc(C(=O)N2CCC(Nc3cc(=O)[nH]c4ccc(C(c5ccc(Cl)cc5)c5ccc(Cl)cc5)cc34)CC2)cc1` [Compound 113, Methyl 4-{[4-({6-[bis(4-chlorophenyl)methyl]-2-oxo-1,2-dihydroquinolin-4-yl}amino)piperidin-1-yl]carbonyl}benzoate], the EC50 in data set [1] was 25 nM; in data set [2], over 10000 nM.

With `O=c1cc(/C=C/c2ccccc2)c2cc(C(c3ccc(Cl)cc3)c3ccc(Cl)s3)ccc2[nH]1` (centres unmarked) [Compound 31, 6-[(4-Chlorophenyl)(5-chlorothiophen-2-yl)methyl]-4-[(E)-2-phenylethenyl]quinolin-2(1H)-one], the EC50 in data set [1] was 2280 nM; in data set [2], over 10000 nM.
